According to US20020042079A1, “METHODS AND AGENTS FOR MEASURING AND CONTROLLING MULTIDRUG RESISTANCE” (priority 1994, published 2002):

Assays:
[1] = tested on: MCF-7/ADR cells; assay: Acridine orange labeling of acidic compartments (confocal microscopy); type: cell-based, human; settings: for red-orange acridine orange fluorescence of cytoplasmic organelles after addition of agent: MCF-7/ADR, 30 minutes, Monensin 5 μM, Bafilomycin A1 500 nM, concanomycin 100 nM, Tamoxifen 5 or 10 μM, verapamil 10 μM, cyclosporin A 10 μM
Procedure: Confocal fluorescence imaging of intracellular pH and acidic compartments: Acridine orange (2 μg/ml media; 4 mg/ml stock in water) was added directly to the chambers and the cells were incubated with the dye at 37° C. for 30 minutes. Cells in the presence of acridine orange were then examined at room temperature with an Insight Bilateral Laser Scanning Confocal Microscope (Meridian Instruments, Okemos, Mich.). […] Optical sections of the fluorescent sample were recorded at 0.5 micron intervals. […] The acetoxymethylester derivative of SNAFL-calcein (15 μg/ml) (Molecular Probes, Eugene, Oreg.) (a radiometric fluorescent probe for pH) was added to both MCF-7 and MCF-7adr cells. The ester linked fluorescent probe enters the cell passively where the esters are hydrolyzed by esterases located in the cytoplasm and intracellular vesicles. The SNAFL-calcein is then ionically trapped within the cytoplasm and vesicular compartments. […] These images were then compared to standard curves that were obtained in the following manner. […] Cells treated with monensin were exposed to the drug (10 μg/ml of media) for 30 minutes at 37° C. prior to labeling with SNAFL-calcein as described above. All cells were examined at room temperature.
The green and red emissions were collected using two photomultiplier tubes. […] Green emission was next passed through a 530 nm/30 nm bandpass filter and collected by the on-axis photomultiplier tube. Red emission was passed through a 610 nm longpass filter and collected by the 90° side photomultiplier tube.
Optical sections of the fluorescent samples were recorded at 0.5 micron intervals with a 60×oil immersion objective.

[2] = tested on: isolated microsomes of MCF-7/ADR cells; assay: In vitro acidification of total microsomal preparation (acridine orange quenching)
Procedure: Acidification of Cellular Microsomes: The acidification of cellular microsomes was assayed spectrophotometrically. Two different approaches were used for assaying acidification: Acidification of the total microsomal preparation using quenching of acridine orange and acidification of the recycling endosomes by monitoring the fluorescence from a microsomal preparation from cells that had previously endocytosed FITC-transferrin.
The homogenate was centrifuged twice for 10 minutes at 3000 g to remove unbroken cells and nuclei. The supernatant was layered over 20 ml of 0.5 M sucrose (20 mM HERES (pH 7.4), 1 mM DTT, 1 mM EDTA, 1×protease inhibitor mix) and 1 ml of 2 M sucrose and centrifuged for one hour at 100,000 g (Beckman Ti60 Rotor). Microsomes are collected at the 0.5 M and 2 M interface.
Acidic vesicles accumulate acridine orange to high concentrations resulting in the self quenching of the dye. This accumulation causes depletion of the acridine orange from the extra-vesicular space, and a decrease of the overall fluorescence of the sample. […] The sample was allowed to equilibrate by stirring for 30 minutes at 25° C. After 5 minutes of recording to establish baseline, 1 mM Tris-ATP was added to begin acidification (100 mM stock, titrated to pH 7.4 with 1 M Tris-base before use).

[3] = tested on: MCF-7/ADR cells; assay: Organelle-specific pH measurements with targeted SNARF and FITC probes in living cells; type: cell-based, human
Procedure: Organelle-specific pH measurements: The pH was measured in selective cellular compartments by targeting ratiometric pH probes to specific organelles. […] Using a Nikon epifluorescence microscope with a intensified CCD camera, the pH probe FITC was excited alternately at 450 nm and 490 nm and emission recorded with a 520/10 bandpass filter. […] In short, to calibrate the pH for the endosomal system, the chamber was perfused with 150 mM sodium buffers at pH of 5, 6 or 7 containing of monensin (20 μM) and nigericin (10 μM) for 5 minutes before recording the fluorescence. For the pH calibrations of cytosol and nucleoplasm, the cells were incubated in 140 mM potassium buffers at pH 6.0, 6.5, 7.0 and 7.5 containing nigericin (20 μM).
After endocytosis, the transferrin is transported through the endosomes and then recycled back to the surface without passage through the lysosomes.
pH in the lysosomes: The pH in the lysosomes was assayed both with light and electron microscopy. […] The pH was calibrated as described above. […] The cells were incubated one hour at room temperature, washed with several changes of PBS pH 7.4 containing 50 mM NH4Cl. […] The cells were embedded in LR White in gelatin capsules and baked at 60° C. for 24 hours in a vacuum oven, sectioned and incubated overnight at 4° C. with anti-DNP antibodies in 4% FBS, washed and incubated in gold (10 nm) labeled secondary antibodies for 2 hours. They were then stained and visualized under the electron microscope.
Cells were plated on polystyrene plates at 50% confluency. Twenty-four to thirty-six hours later, the medium was aspirated and the cells were covered with 50 μl of DME with SNARF-dextran (10 mg/ml). The cells were quickly scraped off the polystyrene and placed in pre-chilled tubes containing 1 ml DME without serum. The cells were harvested (100 g for 5 minutes), washed twice with pre-chilled DME, and plated on Lab-Tek chambers in DME with serum. The cells were allowed to recover for 24 hours prior to examination on a confocal microscope. The pH was calibrated from SNARF fluorescence as described above.
pH in the nucleus: The nucleoplasmic pH was probed by loading the cytosol with SNARF conjugated to a 10 kD dextran. This dextran is too large to cross cellular membranes, but can enter the nucleoplasm by diffusion across the nuclear pores. Confocal fluorescence microscopy was used to prepare optical sections through the cell allowing the fluorescence intensity of the nucleoplasm and cytoplasm to be quantified. The 10 kD SNARF-dextran was loaded into the cytosol and imaged using the same techniques for the 70 kD SNARF-dextrans (see above).

[4] = tested on: MCF-7/ADR cells; assay: Lysosomal acidification by DAMP immuno-electron microscopy; type: cell-based, human; parameters: dose or concentration left out as unconfirmed; settings: MCF-7/ADR cells treated prior to DAMP
Procedure: pH in the lysosomes: The pH in the lysosomes was assayed both with light and electron microscopy. Light microscopy: […] Cell Biol., 105:2723-2733 (1987)]. The pH was calibrated as described above. Electron microscopy: The cells were incubated with the weak base DAMP, fixed, probed with an mouse antibody to DNP (cross-reacts with DAMP) and visualized with gold-conjugated anti-mouse antibodies. […] Then DAMP was added to a final concentration of at 70 μM and the cells were incubated for another 45 minutes. The medium was replaced with phosphate buffered saline (PBS), pH 7.4, with 4% paraformaldehyde and 0.75% gluteraldehyde. […] They were then stained and visualized under the electron microscope.

SMILES	red-orange acridine orange fluorescence of cytoplasmic organelles after addition of agent [1]	red-orange acridine orange fluorescence of cytoplasmic organelles after addition of agent ([1]; listed as monensin)	acidification of pre-treated microsomes ([2]; Tamoxifen 8 μM, Bafilomycin A1 10 nM, monensin concentration not given)	rate of dissipation of the pre-existing pH gradient ([2]; added 10 minutes after ATP, Bafilomycin A1 100 nM, compared with tamoxifen)	shift of cytosolic pH, more alkaline ([3]; MCF-7/ADR cells, SNARF 70 kD dextran, Tamoxifen at 10 μM)	average density of gold particles (anti-DNP labeling of DAMP) per lysosomal area [4]	red-orange acridine orange fluorescence of cytoplasmic organelles after addition of agent ([1]; listed as tamoxifen)	acridine orange staining of acidic vesicles after treatment ([1]; MCF-7adr (Examples 2, 3), nigericin 7.5 μM, tamoxifen 50 μM)	time to almost complete dissipation of the pre-existing pH gradient ([2]; 8 μM Tamoxifen added 10 minutes after Tris-ATP)	change with Tamoxifen, pH Lysosomes SNARF-conjugated dextran ([3]; MCF-7/ADR)	change with Tamoxifen, pH Recycling endosomes FITC-conjugated transferrin ([3]; MCF-7/ADR)	change with Tamoxifen, pH lysosomes FITC conjugated dextran ([3]; MCF-7/ADR)	pH Cytosol (SNARF 70 kD dextran) ([3]; MCF-7/ADR + Tamoxifen (10 μM))	pH Lysosomes SNARF-conjugated dextran ([3]; MCF-7/ADR + Tamoxifen (10 μM))	pH Nucleus (SNARF 10 kD dextran) ([3]; MCF-7/ADR + Tamoxifen (10 μM))	pH Recycling endosomes FITC-conjugated transferrin ([3]; MCF-7/ADR + Tamoxifen (10 μM))	pH lysosomes FITC conjugated dextran ([3]; MCF-7/ADR + Tamoxifen (10 μM), FITC cannot discriminate pH above 6.6)	pH Recycling endosomes FITC-conjugated transferrin ([3]; MCF-7/ADR + Tamoxifen (10 μM), listed as tamoxifen)
CC[C@@]1([C@@H]2O[C@@H]([C@H]3O[C@@](O)(CO)[C@H](C)C[C@@H]3C)C[C@@H]2C)CC[C@H]([C@]2(C)CC[C@]3(C[C@H](O)[C@@H](C)[C@@H]([C@@H](C)[C@@H](OC)[C@H](C)C(=O)O)O3)O2)O1 [Monensin]	loss of the red-orange fluorescence	did not exhibit the red spectral shift within the vesicles	inhibited acidification	significantly faster than tamoxifen	0.2 units	zero	–	–	–	–	–	–	–	–	–	–	–	–
CC/C(=C(\c1ccccc1)c1ccc(OCCN(C)C)cc1)c1ccccc1 [Tamoxifen]	loss of the red-orange cytoplasmic fluorescence	–	–	–	–	2.0 /μm^2	steady decrease of the red acridine orange fluorescence	loss of acridine orange staining within the pericentriolar region	≤ 5 minutes	>+1.1	+0.5	>+1.2	7.20 ± 0.1	7.1	7.20 ± 0.1	6.7 ± 0.2	> 6.6	6.7
